Laboratory results as given in patent publication US20040171566A1, “Antisense modulation of p38 mitogen activated protein kinase expression” (priority 1999, published 2004).

Test system: ovalbumin (OVA)-induced airway hyperresponsiveness and allergic inflammation
Assay: Mouse model of allergic inflammation (OVA), aerosol oligonucleotide administration
Format: in vivo
Description: In the mouse model of allergic inflammation, mice were sensitized and challenged with aerosolized chicken ovalbumin (OVA). Airway responsiveness was assessed by inducing airflow obstruction with a methacholine aerosol using a noninvasive method. This methodology utilized unrestrained conscious mice that are placed into the main chamber of a plthysmograph (Buxco Electronics, Inc., Troy, N.Y.). Pressure differences between this chamber and a reference chamber were used to extrapolate minute volume, breathing frequency and enhanced pause (Penh). Penh is a dimensionless parameter that is a function of total pulmonary airflow in mice (i.e., the sum of the airflow in the upper and lower respiratory tracts) during the respiratory cycle of the animal. The lower the Penh, the greater the airflow. This parameter closely correlates with lung resistance as measured by traditional invasive techniques using ventilated animals (Hamelmann et al., 1997). Dose-response data were plotted as raw Penh values to increasing concentrations of methacholine. This system was used to test the efficacy of an antisense oligonucleotide targeted to mouse p38α (ISIS 101757; SEQ ID NO: 177). Mismatched p38α oligonucleotide (ISIS 101758; SEQ ID NO: 266) was used as a negative control.
[…]. […] AHR was measured 24 hours after OVA challenge.
Animals were injected with a lethal dose of ketamine, the trachea was exposed and a cannula was inserted and secured by sutures. The lungs were lavaged twice with 0.5 ml aliquots of ice cold PBS with 0.2% FCS. The recovered BAL fluid was centrifuged at 1,000 rpm for 10 min at 4° C., frozen on dry ice and stored at −80° C. until used. Luminex was used to measure cytokine levels in BAL fluid and serum.
Cytospins of cells recovered from BAL fluid were prepared using a Shandon Cytospin 3 (Shandon Scientific LTD, Cheshire, England). Cell differentials were performed from slides stained with Leukostat (Fisher Scientific, Pittsburgh, Pa.). Total cell counts were quantified by hemocytometer and, together with the percent type by differential, were used to calculate specific cell number.
Before resection, lungs were inflated with 0.5 ml of 10% phosphate-buffered formalin and fixed overnight at 4° C. The lung samples were washed free of formalin with 1×PBS and subsequently dehydrated through an ethanol series prior to equilibration in xylene and embedded in paraffin. Sections (6μ) were mounted on slides and stained with hematoxylin/eosin, massons trichome and periodic acid-schiff (PAS) reagent. Parasagittal sections were analyzed by bright-field microscopy. Mucus cell content was assessed as the airway epithelium staining with PAS. Relative comparisons of mucus content were made between cohorts of animals by counting the number of PAS-positive airways.

[1] = sensitized mice, aerosol, compared to the mismatched control

ISIS 101757: antisense oligonucleotide targeted to mouse p38α, SEQ ID NO 177; 2′-MOE gapmer, all phosphorothioate linkages (antisense AGGTGCTCAGGACTCCATTT; all phosphorothioate, sugars by position and methylation of C not given here; 2'-MOE gapmer)
provocation concentration of methacholine required to achieve doubling of airway reactivity (PC200) (OVA-challenged mice, inhaled): increases
methacholine-induced AHR (OVA-sensitized mice, aerosol, whole body plethysmography): dose-dependently suppressed
OVA-induced increases in eosinophils recovered in BAL fluid (aerosol): significantly (P<0.05) reduced
OVA-induced increases in total cell counts recovered in BAL fluid (aerosol): significantly (P<0.05) reduced
OVA-induced inflammatory cell infiltration into the lungs (H&E stain) (aerosol, histology): markedly inhibited
mucus hypersecretion in the airway epithelium (PAS stain) (aerosol, histology): markedly inhibited
blood levels of OVA-specific IgE [1]: significantly (P<0.05);lowered
blood levels of OVA-specific IgG1 [1]: significantly (P<0.05);lowered
blood levels of total IgE [1]: significantly (P<0.05);lowered
